Assay results taken from PubChem BioAssay (NCI).
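Five concentrations, 48 hours, 96-well plates. Here, GI50 denotes the concentration required for 50% inhibition of growth. TGI marks complete inhibition of growth.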

Columns and labels:
Experiment in all cases: growth of human tumour cells (NCI), 48 h
OVCAR-8 ovarian = tested on: OVCAR-8 ovarian
SR leukemia = tested on: SR leukemia
M14 melanoma = tested on: M14 melanoma
UACC-257 melanoma = tested on: UACC-257 melanoma
MALME-3M melanoma = tested on: MALME-3M melanoma
NCI-H522 lung = tested on: NCI-H522 lung
SW-620 colon = tested on: SW-620 colon
LOX IMVI melanoma = tested on: LOX IMVI melanoma
T-47D breast = tested on: T-47D breast
MDA-MB-231 breast = tested on: MDA-MB-231 breast
MCF7 breast = tested on: MCF7 breast
UACC-62 melanoma = tested on: UACC-62 melanoma
IGROV1 ovarian = tested on: IGROV1 ovarian
NCI-H460 lung = tested on: NCI-H460 lung
HCT-15 colon = tested on: HCT-15 colon
SK-OV-3 ovarian = tested on: SK-OV-3 ovarian
SN12C renal = tested on: SN12C renal
SNB-75 CNS = tested on: SNB-75 CNS
HT29 colon = tested on: HT29 colon
UO-31 renal = tested on: UO-31 renal
OVCAR-3 ovarian = tested on: OVCAR-3 ovarian
COLO 205 colon = tested on: COLO 205 colon
NCI/ADR-RES ovarian = tested on: NCI/ADR-RES ovarian
A549 NSCLC = tested on: A549 NSCLC
SF-268 CNS = tested on: SF-268 CNS
BT-549 breast = tested on: BT-549 breast
OVCAR-5 ovarian = tested on: OVCAR-5 ovarian
SF-295 CNS = tested on: SF-295 CNS
ACHN renal = tested on: ACHN renal
SK-MEL-5 melanoma = tested on: SK-MEL-5 melanoma
HS 578T breast = tested on: HS 578T breast
NCI-H226 lung = tested on: NCI-H226 lung
EKVX NSCLC = tested on: EKVX NSCLC
PC-3 prostate = tested on: PC-3 prostate
OVCAR-4 ovarian = tested on: OVCAR-4 ovarian
SNB-19 CNS = tested on: SNB-19 CNS
HOP-92 NSCLC = tested on: HOP-92 NSCLC
HOP-62 NSCLC = tested on: HOP-62 NSCLC
MOLT-4 leukemia = tested on: MOLT-4 leukemia
TK-10 renal = tested on: TK-10 renal
DU-145 prostate = tested on: DU-145 prostate
HL-60(TB) leukemia = tested on: HL-60(TB) leukemia
RPMI-8226 leukemia = tested on: RPMI-8226 leukemia
SK-MEL-28 melanoma = tested on: SK-MEL-28 melanoma
HCC-2998 colon = tested on: HCC-2998 colon
SK-MEL-2 melanoma = tested on: SK-MEL-2 melanoma
MDA-MB-435 = tested on: MDA-MB-435
HCT-116 colon = tested on: HCT-116 colon
786-0 renal = tested on: 786-0 renal
KM12 colon = tested on: KM12 colon
A498 renal = tested on: A498 renal
RXF 393 renal = tested on: RXF 393 renal
U251 CNS = tested on: U251 CNS
CAKI-1 renal = tested on: CAKI-1 renal
CCRF-CEM leukemia = tested on: CCRF-CEM leukemia
NCI-H23 lung = tested on: NCI-H23 lung
SF-539 CNS = tested on: SF-539 CNS
K-562 leukemia = tested on: K-562 leukemia

CC(C)(C)[Si](C)(C)OCC1OC(n2cc(I)c(=O)[nH]c2=O)C(O[Si](C)(C)C(C)(C)C)C1O[Si](C)(C)C(C)(C)C (configuration not stated)
TGI (OVCAR-8 ovarian): 29.1 µM
TGI (SR leukemia): > 100 µM
TGI (M14 melanoma): 45.4 µM
TGI (UACC-257 melanoma): 67.6 µM
TGI (MALME-3M melanoma): > 100 µM
TGI (NCI-H522 lung): 25.2 µM
TGI (SW-620 colon): 41.4 µM
TGI (LOX IMVI melanoma): 35.2 µM
TGI (T-47D breast): 47.6 µM
TGI (MDA-MB-231 breast): 37.4 µM
TGI (MCF7 breast): 29.4 µM
TGI (UACC-62 melanoma): 35.4 µM
TGI (IGROV1 ovarian): 38.1 µM
TGI (NCI-H460 lung): 36.8 µM
TGI (HCT-15 colon): > 100 µM
TGI (SK-OV-3 ovarian): 75.4 µM
TGI (SN12C renal): > 100 µM
TGI (SNB-75 CNS): 33 µM
TGI (HT29 colon): 37 µM
TGI (UO-31 renal): 50.2 µM
TGI (OVCAR-3 ovarian): 28 µM
TGI (COLO 205 colon): 53.7 µM
TGI (NCI/ADR-RES ovarian): > 100 µM
TGI (A549 NSCLC): 26.1 µM
TGI (SF-268 CNS): 43 µM
TGI (BT-549 breast): 50.7 µM
TGI (OVCAR-5 ovarian): 45.7 µM
TGI (SF-295 CNS): 36.8 µM
TGI (ACHN renal): 28.5 µM
TGI (SK-MEL-5 melanoma): 31.4 µM
TGI (HS 578T breast): 57.2 µM
TGI (NCI-H226 lung): 48 µM
TGI (EKVX NSCLC): 45.6 µM
TGI (PC-3 prostate): 43.1 µM
TGI (OVCAR-4 ovarian): > 100 µM
TGI (SNB-19 CNS): 43.2 µM
TGI (HOP-92 NSCLC): 56.2 µM
TGI (HOP-62 NSCLC): 39.8 µM
TGI (MOLT-4 leukemia): > 100 µM

COc1cc2c(cc1OCCCOS(C)(=O)=O)N=C[C@@H]1CCCN1C2=O
TGI (OVCAR-8 ovarian): > 100 µM
TGI (TK-10 renal): > 100 µM
GI50 (SR leukemia): 62.9 µM
TGI (SR leukemia): > 100 µM
TGI (M14 melanoma): > 100 µM
TGI (UACC-257 melanoma): > 100 µM
TGI (MALME-3M melanoma): > 100 µM
TGI (NCI-H522 lung): > 100 µM
TGI (SW-620 colon): > 100 µM
TGI (LOX IMVI melanoma): > 100 µM
TGI (T-47D breast): > 100 µM
TGI (MDA-MB-231 breast): > 100 µM
TGI (DU-145 prostate): > 100 µM
TGI (HL-60(TB) leukemia): > 100 µM
TGI (RPMI-8226 leukemia): > 100 µM
TGI (MCF7 breast): > 100 µM
TGI (UACC-62 melanoma): > 100 µM
TGI (SK-MEL-28 melanoma): > 100 µM
TGI (HCC-2998 colon): > 100 µM
TGI (IGROV1 ovarian): > 100 µM
TGI (SK-MEL-2 melanoma): > 100 µM
TGI (MDA-MB-435): > 100 µM
TGI (HCT-116 colon): > 100 µM
TGI (786-0 renal): > 100 µM
TGI (KM12 colon): > 100 µM
TGI (NCI-H460 lung): > 100 µM
TGI (HCT-15 colon): > 100 µM
TGI (A498 renal): > 100 µM
TGI (RXF 393 renal): > 100 µM
TGI (SK-OV-3 ovarian): > 100 µM
TGI (SN12C renal): > 100 µM
GI50 (SNB-75 CNS): 94.7 µM
TGI (SNB-75 CNS): > 100 µM
TGI (HT29 colon): > 100 µM
TGI (UO-31 renal): > 100 µM
TGI (OVCAR-3 ovarian): > 100 µM
TGI (U251 CNS): > 100 µM
TGI (CAKI-1 renal): > 100 µM
TGI (COLO 205 colon): > 100 µM
TGI (NCI/ADR-RES ovarian): > 100 µM
TGI (A549 NSCLC): > 100 µM
TGI (SF-268 CNS): > 100 µM
GI50 (CCRF-CEM leukemia): 52.8 µM
TGI (CCRF-CEM leukemia): > 100 µM
TGI (SF-295 CNS): > 100 µM
TGI (ACHN renal): > 100 µM
TGI (SK-MEL-5 melanoma): > 100 µM
TGI (HS 578T breast): > 100 µM
TGI (NCI-H23 lung): > 100 µM
TGI (NCI-H226 lung): > 100 µM
TGI (EKVX NSCLC): > 100 µM
TGI (SF-539 CNS): > 100 µM
GI50 (OVCAR-4 ovarian): 70.4 µM
TGI (OVCAR-4 ovarian): > 100 µM
TGI (SNB-19 CNS): > 100 µM
TGI (HOP-92 NSCLC): > 100 µM
TGI (MOLT-4 leukemia): > 100 µM

COc1ccc2nc3c([N+](=O)[O-])ccc(NCCCN(C)C)c3c(NCCCN(C)C)c2c1
TGI (OVCAR-8 ovarian): 2.9 µM
TGI (TK-10 renal): 5.52 µM
TGI (SR leukemia): 1.14 µM
TGI (M14 melanoma): > 10 µM
TGI (UACC-257 melanoma): > 10 µM
TGI (MALME-3M melanoma): > 10 µM
TGI (SW-620 colon): 6.22 µM
TGI (LOX IMVI melanoma): 3 µM
TGI (T-47D breast): > 10 µM
TGI (MDA-MB-231 breast): 2.87 µM
TGI (K-562 leukemia): 5.89 µM
TGI (DU-145 prostate): > 10 µM
TGI (HL-60(TB) leukemia): 8.81 µM
TGI (RPMI-8226 leukemia): 2.53 µM
TGI (MCF7 breast): 2.33 µM
TGI (UACC-62 melanoma): > 10 µM
TGI (SK-MEL-28 melanoma): 3.42 µM
TGI (HCC-2998 colon): 2.61 µM
TGI (IGROV1 ovarian): 4.07 µM
TGI (MDA-MB-435): > 10 µM
TGI (786-0 renal): 2.13 µM
TGI (KM12 colon): 2.54 µM
TGI (HCT-15 colon): 2.86 µM
TGI (RXF 393 renal): 2.02 µM
TGI (SK-OV-3 ovarian): 4.14 µM
TGI (SN12C renal): 2.63 µM
TGI (SNB-75 CNS): 3.49 µM
TGI (HT29 colon): 2.56 µM
TGI (CAKI-1 renal): 3.98 µM
TGI (A549 NSCLC): 3.43 µM
TGI (SF-268 CNS): > 10 µM
TGI (CCRF-CEM leukemia): 2.4 µM
TGI (SF-295 CNS): 3.01 µM
TGI (SK-MEL-5 melanoma): 3.46 µM
TGI (NCI-H23 lung): 3.46 µM
TGI (EKVX NSCLC): 5.09 µM
TGI (PC-3 prostate): 2.24 µM
TGI (OVCAR-4 ovarian): 2.29 µM
TGI (HOP-92 NSCLC): > 10 µM
TGI (HOP-62 NSCLC): 3.07 µM
TGI (MOLT-4 leukemia): 1.26 µM
